Experimental data: patent US20030012732A1, “Feeding assay for identifying nematicidal compounds” (priority 1999, published 2003)

Experiments:
C. elegans [1] = test: Feeding assay: ingestion of fluorescent microsphere beads (pharyngeal pumping), read by fluorimetry / fluorescence microscopy; format: in vivo, C. elegans of the Bristol N2 strain
Protocol: 1. C. elegans of the Bristol N2 strain (Brenner, S. 1974. The genetics of Caenorhabditis elegans. Genetics 77: 71-94) were cultured at room temperature on HMS174 E. coli bacteria (Campbell, J. L., Richardson, C., and Studier, F. W. 1978. Genetic recombination and complementation between bacteriophage T7 and cloned fragments of T7 DNA. Proc. Natl. Acad. Sci. USA. 75: 2276-2280) spread on a 150 mm diameter petri dish containing enhanced NGM 3% (w/v) (Avery, L., and Horvitz, H. R. 1990. Effects of starvation and neuroactive drugs on feeding in Caenorhabditis elegans. J. Exp. Zool. 253: 263-270) agar until a good population of adult nematodes was present, but food reserves had not been exhausted. (Nematodes may be mass cultured in suspension if required).
2. The nematodes were collected by washing with 10 mL and then 5 mL of […] and filtering over a 20 μm nylon mesh (Nytal—Catalogue no. BCNY-HD002-20) to retain adult nematodes.
3. Adult nematodes were collected from the mesh using a pasteur pipette and allowed to settle in an eppendorf tube at 1 g for 10 minutes. This packed volume was used to calculate quantities of nematodes for experiments and assays, although nematodes were resuspended in 2-10 volumes of M9 buffer for transfer. Quantitative transfers of nematodes were performed using a Gilson Pipetman P200 or equivalent and a yellow tip with 5 mm cut off the sharp end.
4. 96-well mesh-bottomed plates were blocked prior to performing the assay in order to minimise non-specific adherence of fluorescent microsphere beads. To block, 200 μL of a 0.1% (w/v) suspension of dark blue-dyed, non-fluorescent microsphere beads with a mean diameter of 0.95 μm and a hydrophilic surface coating (Catalogue code DC03B, carboxylate-modified polystyrene/polyvinyl copolymer) (manufactured and supplied by Bangs Laboratories, Inc. 9025 Technology Drive. Fishers, Ind. 46038-2886, USA) were added to the plate and incubated overnight at room temperature with orbital shaking at 70 r.p.m. Prior to the assay, the bead suspension was removed under vacuum using a Millipore Multiscreen manifold. The plate was washed three times by pipetting 200 μL of M9 buffer into each well, allowing the plate to sit for 5 minutes and then sucking off the suspension.
5. The assay was either set up in the wells of a solid-bottomed 24-well plate using a final assay volume in the range of 0.5 to 1.0 mL or it was set up in the wells of a 96-well mesh bottomed plate (Millipore Multiscreen N20 plates, custom order no. SE3R090M6). In the latter case, the final assay volume was always 100 μL. The assay buffer in all cases was M9. The added volume of a stock of M9 and the added volume of double-distilled water were adjusted so as to achieve a final concentration of 1×M9 in the desired assay volume. A sufficient volume of a suspension of nematodes was added to the assay wells to give a final percentage in the range of 2.5% to 15% (v/v) depending on the experiment. A stock solution of the drug or test compound (e.g. serotonin) was added to the wells of the plate to give the desired final concentration. A sufficient volume of a suspension of fluorescent microsphere beads in double-distilled water was added to give a final concentration in the range of 0.025% to 0.1% (w/v) depending on the experiment.
6. The fluorescent beads were 1.30 μm uniformly dyed microsphere beads with a hydrophilic surface-coating. The fluorescence excitation maximum was 420 nm and the emission maximum was 485 nm (catalogue code FC04F, carboxylate-modified polystyrene/polyvinyl copolymer, manufactured and supplied by Bangs Laboratories, Inc. 9025 Technology Drive, Fishers, Ind. 46038-2886, USA).
7. The assay plate was placed on an orbital shaker at 70 r.p.m. at room temperature and incubated for up to 180 minutes (normally 60 minutes), under subdued illumination.
8. At the end of the incubation 20 μL of 100 mM sodium azide was added to the wells of the 96-well mesh plate. […]

C. elegans [2] = test: Videotaping nematodes under Nomarski interference microscopy (pharyngeal pumping rate); format: in vivo; details: at the doses of FIG. 3, separate experiments (not shown)

SMILES: NCCc1c[nH]c2ccc(O)cc12 [serotonin]
- effect of high concentration on signal (bead ingestion) (C. elegans [1]; 5 mM serotonin, 60 minutes, FIG. 3): suboptimal
- signal over control (C. elegans [1]; 10 μL packed volume of adult nematodes (1,600-1,800 nematodes), two hour incubation, gain setting of 30): 6246 arbitrary fluorescence intensity units
- microsphere beads contained in strongly labelled nematodes (C. elegans [1]; estimated, high magnification examination): at least several hundred microsphere beads
- effect on microsphere bead ingestion when present during the incubation (C. elegans [1]; in vivo): increased microsphere bead ingestion
- average number of microsphere beads ingested by nematodes more than a control nematode (C. elegans [1]; later experiments, optimised conditions): ≤ 2,400 microsphere beads
- signal strength over control relative to the earlier experiment (C. elegans [1]; later experiments, optimised conditions, same volume of nematodes): approximately 6 times greater
- treated nematodes that had ingested one or more microsphere beads (C. elegans [1]; other experiments under similar conditions to FIG. 1, high magnification examination): approximately 80%
- microsphere beads ingested on average per serotonin-treated nematode more than a control nematode (C. elegans [1]; same experiment, two hour incubation): 417 microsphere beads
- effect on pharyngeal pumping rate (C. elegans [2]): directly affects pharyngeal pumping rate
